Source: PubChem BioAssay (NCI)
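Here, GI50 denotes the concentration required for 50% inhibition of growth. The concentration for full growth arrest is given as TGI.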

Columns and labels:
Assay in all cases: inhibition of tumour cell growth, NCI panel, 384-well format
TK-10 renal = tested on: TK-10 renal
SF-539 CNS = tested on: SF-539 CNS
OVCAR-3 ovarian = tested on: OVCAR-3 ovarian
U251 glioblastoma = tested on: U251 glioblastoma
COLO 205 colon = tested on: COLO 205 colon
SNB-75 CNS = tested on: SNB-75 CNS
SNB-19 CNS = tested on: SNB-19 CNS
786-0 renal = tested on: 786-0 renal
SF-268 CNS = tested on: SF-268 CNS
HOP-92 NSCLC = tested on: HOP-92 NSCLC
CCRF-CEM leukemia = tested on: CCRF-CEM leukemia
MALME-3M melanoma = tested on: MALME-3M melanoma
KM12 colon = tested on: KM12 colon

Compound: CC(C)(O)C1CCC(Nc2ccc3ncc(-c4cccc(C(F)(F)F)c4)n3n2)CC1 (stereo unspecified)
- GI50 (TK-10 renal): 1.39 µM
- TGI (TK-10 renal): 6.84 µM
- GI50 (SF-539 CNS): 1.02 µM
- TGI (SF-539 CNS): 2.33 µM
- GI50 (OVCAR-3 ovarian): 1.95 µM
- TGI (OVCAR-3 ovarian): 6.19 µM
- GI50 (U251 glioblastoma): 1.32 µM
- TGI (U251 glioblastoma): 2.83 µM
- GI50 (COLO 205 colon): 2.47 µM
- TGI (COLO 205 colon): 8.7 µM
- GI50 (SNB-75 CNS): 1.45 µM
- TGI (SNB-75 CNS): 4.14 µM
- GI50 (SNB-19 CNS): 1.9 µM
- TGI (SNB-19 CNS): 5.5 µM
- GI50 (786-0 renal): 0.554 µM
- TGI (786-0 renal): 1.9 µM
- GI50 (SF-268 CNS): 1.51 µM
- TGI (SF-268 CNS): 4.44 µM
- GI50 (HOP-92 NSCLC): 0.67 µM
- TGI (HOP-92 NSCLC): 3.13 µM
- GI50 (CCRF-CEM leukemia): 0.367 µM
- TGI (CCRF-CEM leukemia): 1.56 µM
- GI50 (MALME-3M melanoma): 0.833 µM
- TGI (MALME-3M melanoma): 2.95 µM
- GI50 (KM12 colon): 0.051 µM
- TGI (KM12 colon): 2.13 µM
